Columns and labels:
vaginal mucosa = assay: Nonoxynol-9-induced irritation of vaginal mucosa in a rabbit model; settings: gel-based lubricant containing 9% nonoxynol-9, rabbits
Description: This animal model was used to evaluate the anti-irritant efficacy of various zinc salt compositions in vivo.
Two ml of the zinc salt lubricant compositions indicated in Table 3 was instilled into the vagina of each rabbit daily for five consecutive days. At the end of this period, a veterinary pathologist evaluated each animal both macroscopically and microhistopathologically and scored the degree of vaginal irritation that was present. Irritation was quantified as follows: 0=No irritation, 1-4=Minimal Irritant, 5-8=Mild Irritation, 9-11=Moderate Irritation, 12-16=Severe Irritation.

[1] = cited from earlier work

Substance | irritation of the vaginal mucosa (vaginal mucosa) | water solubility (in words) [1]
nonoxynol-9 | mild to moderate irritation | 
zinc picolinate |  | moderately water soluble

Source: patent US7563461B2, “Zinc salt compositions for the prevention of dermal and mucosal irritation” (The Trustees of Columbia University in the City of New York, priority 2002, dated 2009)
